Laboratory results: paper PMC12698583, “Efficacy of sulfonamides targeting malic enzyme in an animal model of Chagas disease” (Frontiers in Pharmacology, 2025)

Experiments:
[1] = Tolerability study, Hippocratic screening; assay type: in vivo, mice; design: Hypnosis / Sedation / Urination / Tachypnea / Muscle tone / Convulsions / Salivation / Tremors / Vocalization / Limb abduction / Ataxia: scale not given here; conditions: 150 mg/kg PO
Description: A tolerability study of drug candidates was conducted using the Hippocratic screening protocol, focusing on the assessment of effects on the central nervous system (CNS) and autonomic nervous system (ANS). Each group containing 3 animals received a 150 mg/kg dose of the compounds via oral (PO) administration (gavage). During the experiment, various behavioral and physiological parameters were monitored at regular intervals, ranging from 0 to 24 hours after administration of the substance.

[2] = tested on: T. cruzi Dm28c strain intracellular form infecting H9c2 rat cardiomyoblasts; assay: T. cruzi intracellular image-based assay; assay type: cell-based, Trypanosoma cruzi; conditions: Selectivity index
Description: Tested compounds were dissolved and serially diluted in dimethylsulfoxide (DMSO) using a half-log dilution across six concentrations. Intermediate plates were prepared by diluting compounds 1:25 in DMEM (Dulbecco’s Modified Eagle Medium) with 10% FBS (Fetal Bovine Serum). The assay was based on [Fredo Naciuk et al. (2020)], with minor modifications. Briefly, T. cruzi trypomastigotes (from LLC-MK2 cultures, 6 days post-infection) were used to infect H9c2 rat cardiomyoblasts overnight (16–18 h) at MOI 1. After washing with PBS, cells were trypsinized and resuspended in DMEM at 2.3 × 10^4 cells/mL. Then, 65 μL per well was plated in 384-well plates and incubated for 24 h (37 °C, 5% CO2, >95% humidity). Subsequently, 7.5 μL of compound solution was added (final [DMSO] 0.4%). After 72 h of treatment, cells were fixed with 4% PFA and stained with Hoechst 33342 (4 μg/mL). Six images per well were acquired using the Operetta system (PerkinElmer) and analyzed with Columbus software to quantify infected cells (≥3 cytoplasmic parasite spots).

CC(C)Oc1ccc(NS(=O)(=O)c2cccc(NC(=O)c3cnccn3)c2)cc1 [AC-M110, N-(3-(N-(4-isopropoxyphenyl)sulfamoyl)phenyl)pyrazine-2-carboxamide]
0A: Ataxia ([1]; 0-15 min) | Convulsions ([1]; 0-15 min) | Hypnosis ([1]; 0-15 min) | Limb abduction ([1]; 0-15 min) | Muscle tone ([1]; 0-15 min) | Pedaling ([1]; 0-15 min) | Piloerection ([1]; 0-15 min) | Ptosis ([1]; 0-15 min) | Salivation ([1]; 0-15 min) | Sedation ([1]; 0-15 min) | Tachypnea ([1]; 0-15 min) | Tremors ([1]; 0-15 min) | Urination ([1]; 0-15 min) | Vocalization ([1]; 0-15 min) | Ataxia ([1]; 15 min) | Convulsions ([1]; 15 min) | Hypnosis ([1]; 15 min) | Limb abduction ([1]; 15 min) | Muscle tone ([1]; 15 min) | Pedaling ([1]; 15 min) | Piloerection ([1]; 15 min) | Ptosis ([1]; 15 min) | Salivation ([1]; 15 min) | Sedation ([1]; 15 min) | Tachypnea ([1]; 15 min) | Tremors ([1]; 15 min) | Urination ([1]; 15 min) | Vocalization ([1]; 15 min) | Ataxia ([1]; 30 min) | Convulsions ([1]; 30 min) | Hypnosis ([1]; 30 min) | Limb abduction ([1]; 30 min) | Muscle tone ([1]; 30 min) | Pedaling ([1]; 30 min) | Piloerection ([1]; 30 min) | Ptosis ([1]; 30 min) | Salivation ([1]; 30 min) | Sedation ([1]; 30 min) | Tachypnea ([1]; 30 min) | Tremors ([1]; 30 min) | Urination ([1]; 30 min) | Vocalization ([1]; 30 min) | Ataxia ([1]; 60 min) | Convulsions ([1]; 60 min) | Hypnosis ([1]; 60 min) | Limb abduction ([1]; 60 min) | Muscle tone ([1]; 60 min) | Pedaling ([1]; 60 min) | Piloerection ([1]; 60 min) | Ptosis ([1]; 60 min) | Salivation ([1]; 60 min) | Sedation ([1]; 60 min) | Tachypnea ([1]; 60 min) | Tremors ([1]; 60 min) | Urination ([1]; 60 min) | Vocalization ([1]; 60 min) | Ataxia ([1]; 2h) | Convulsions ([1]; 2h) | Hypnosis ([1]; 2h) | Limb abduction ([1]; 2h) | Muscle tone ([1]; 2h) | Pedaling ([1]; 2h) | Piloerection ([1]; 2h) | Ptosis ([1]; 2h) | Salivation ([1]; 2h) | Sedation ([1]; 2h) | Tachypnea ([1]; 2h) | Tremors ([1]; 2h) | Urination ([1]; 2h) | Vocalization ([1]; 2h) | Ataxia ([1]; 3h) | Convulsions ([1]; 3h) | Hypnosis ([1]; 3h) | Limb abduction ([1]; 3h) | Muscle tone ([1]; 3h) | Pedaling ([1]; 3h) | Piloerection ([1]; 3h) | Ptosis ([1]; 3h) | Salivation ([1]; 3h) | Sedation ([1]; 3h) | Tachypnea ([1]; 3h) | Tremors ([1]; 3h) | Urination ([1]; 3h) | Vocalization ([1]; 3h) | Ataxia ([1]; 4h) | Convulsions ([1]; 4h) | Hypnosis ([1]; 4h) | Limb abduction ([1]; 4h) | Muscle tone ([1]; 4h) | Pedaling ([1]; 4h) | Piloerection ([1]; 4h) | Ptosis ([1]; 4h) | Salivation ([1]; 4h) | Sedation ([1]; 4h) | Tachypnea ([1]; 4h) | Tremors ([1]; 4h) | Urination ([1]; 4h) | Vocalization ([1]; 4h) | Ataxia ([1]; 24h) | Convulsions ([1]; 24h) | Hypnosis ([1]; 24h) | Limb abduction ([1]; 24h) | Muscle tone ([1]; 24h) | Pedaling ([1]; 24h) | Piloerection ([1]; 24h) | Ptosis ([1]; 24h) | Salivation ([1]; 24h) | Sedation ([1]; 24h) | Tachypnea ([1]; 24h) | Tremors ([1]; 24h) | Urination ([1]; 24h) | Vocalization ([1]; 24h)
9092: SI [2]
